This is an account of results in patent publication US20040242694A1, “Remedial agent for cardiac failure” (priority 2001, published 2004).

Data set [1] has as its system animal test mode of ventricular failure. The note with it: J Pharmacol Exp Ther 291(2) 799-811 (1999); Circ Res 85(4) 364-376 (1999); cited from earlier work.
Data set [2] relates to Dahl's salt-sensitive rat. Nature of the data set: P-V curve of removed hearts under perfuse by Langendorff's method. Format: ex vivo. The conditions noted are these: compared with the control group; Langendorff perfusion. On the procedure:
In the above model of cardiac failure using Dahl's salt-sensitive rat, internal pressure and volume of left ventricle of hearts removed from 11, 15, and 17 weeks rats were measured under perfuse by Langendorff's method.

The test system of a further data set is mice. The experiment in a line: Toxicity, oral administration to mice. Format: in vivo. On the procedure: It was considered that the toxicities of the compounds in the present invention could be very low and safe to use as a medicine. For example, the lowest lethal dose in oral administration of compound (II) to mice was 2000 mg/kg.

Regarding `CC(C)[C@H](NS(=O)(=O)c1ccc(-c2ccc(Br)cc2)cc1)C(=O)O` [PD166793], the “effect on animal test model of ventricular failure” value in data set [1] was “effective”.

With `CCOCOC[C@H](C[C@H](C)C(=O)NO)NC(=O)c1ccc(Oc2ccccc2)cc1` [compound (II), N-hydroxy-5-ethoxymethyloxy-2(S)-methyl-4(S)-(4-phenoxybenzoyl)aminopentanamide], the “P-V curve (internal pressure and volume of left ventricle)” value in data set [2] is listed as “shifts to the left side”. The same compound showed a lowest lethal dose with mice of 2000 mg/kg.
